Columns and labels:
PRMT5 [1] = target: T1, PRMT5 (Homo sapiens, UniProt O14744); test: PRMT5 biochemical IC50 assay with SAM as cofactor; conditions: PRMT5, SAM as cofactor; read-out: SAM IC50
T1 construct: purchased Viva (custom protein)

PRMT5 [2] = target: T1, PRMT5; test: PRMT5 biochemical IC50 assay with MTA as cofactor; conditions: PRMT5, MTA as cofactor; read-out: MTA IC50
[3] = system: HAP1 MTAP-deleted cell line; test: Viability assay, MTAP-deleted cell line; assay type: cell-based; conditions: Homo sapiens, HAP1, viability assay, HAP1 MTAP-deleted; read-out: HAP1 MTAP deleted viability
Text: Table 1 additionally indicates IC50 values in a viability assay for the MTAP-deleted cell line (column 10), indicating the effect of treatment with compound on cell survival.

PRMT5 [4] = target: T1, PRMT5; test: PRMT5 biochemical IC50 assay with no cofactor; conditions: PRMT5, no cofactor; read-out: No Cofactor/rel IC50
Text: Table 1 indicates IC50 values (μM) against PRMT5 for exemplary compounds in the presence of SAM as cofactor, with no cofactor, and with MTA as cofactor, respectively (columns 4-6). […] Ki values can be calculated from the IC50 values as described in the Examples section. As detailed in the Examples section, for the assay performed in the presence of SAM, IC50=Ki×1.5 (Ki=IC50/1.5).

[5] = system: HAP1 MTAP-intact cell line; test: SDMA in-cell western assay, HAP1 MTAP-intact; assay type: cell-based; conditions: Homo sapiens, HAP1, SDMA in-cell western, HAP1 MTAP-intact; read-out: MTAP HAP1 intact IC50
Procedure, shortened: (§1)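 IC50 values come from SDMA signal quantified by in-cell western in two HAP1 lines, one with native MTAP levels and one lacking MTAP.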

[6] = system: HAP1 MTAP-deleted cell line; test: SDMA in-cell western assay, HAP1 MTAP-deleted; assay type: cell-based; conditions: for IC50: Homo sapiens, HAP1, SDMA in-cell western, HAP1 MTAP-deleted, read-out: HAP1 MTAP deleted IC50; for MTAP intact/deleted ratio: IC50 ratio HAP1 MTAP-intact / HAP1 MTAP-deleted, SDMA in-cell western
Procedure, shortened: as §1

T1 sequence (O14744 whole entry): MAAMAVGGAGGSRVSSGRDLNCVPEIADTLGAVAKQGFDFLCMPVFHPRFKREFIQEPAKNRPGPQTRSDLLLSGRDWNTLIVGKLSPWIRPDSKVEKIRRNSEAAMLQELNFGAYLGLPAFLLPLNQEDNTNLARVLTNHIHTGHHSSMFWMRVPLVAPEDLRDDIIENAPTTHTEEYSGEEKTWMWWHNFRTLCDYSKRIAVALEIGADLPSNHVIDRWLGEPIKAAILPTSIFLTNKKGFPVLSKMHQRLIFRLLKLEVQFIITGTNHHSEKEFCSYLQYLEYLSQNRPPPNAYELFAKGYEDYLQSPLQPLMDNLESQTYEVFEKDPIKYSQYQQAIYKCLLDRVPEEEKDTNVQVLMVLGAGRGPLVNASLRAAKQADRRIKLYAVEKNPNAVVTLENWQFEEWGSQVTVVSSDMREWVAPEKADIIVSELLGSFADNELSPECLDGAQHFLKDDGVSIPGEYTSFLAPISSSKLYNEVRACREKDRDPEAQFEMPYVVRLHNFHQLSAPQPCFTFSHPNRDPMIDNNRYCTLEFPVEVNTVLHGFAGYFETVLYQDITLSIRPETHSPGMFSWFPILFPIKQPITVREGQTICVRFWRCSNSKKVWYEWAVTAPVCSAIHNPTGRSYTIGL
T1 sequence (Q9BQA1 whole entry partner): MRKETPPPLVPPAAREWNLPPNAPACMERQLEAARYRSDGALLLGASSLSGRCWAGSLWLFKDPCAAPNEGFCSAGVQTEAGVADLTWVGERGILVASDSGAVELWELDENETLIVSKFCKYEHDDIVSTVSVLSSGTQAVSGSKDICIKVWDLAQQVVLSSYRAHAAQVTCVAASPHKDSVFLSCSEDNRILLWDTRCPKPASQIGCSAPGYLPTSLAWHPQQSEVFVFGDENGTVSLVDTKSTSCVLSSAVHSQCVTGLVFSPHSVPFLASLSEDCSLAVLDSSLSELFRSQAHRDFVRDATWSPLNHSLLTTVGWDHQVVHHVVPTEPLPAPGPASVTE

| Compound | IC50 (PRMT5 [1]) [nM] | IC50 (PRMT5 [2]) [nM] | IC50 (PRMT5 [4]) [nM] | IC50 [5] [nM] | IC50 [6] [nM] | IC50 [3] [nM] | MTAP intact/deleted ratio [6] |
| --- | --- | --- | --- | --- | --- | --- | --- |
| Cc1cc(NC(=O)C(=O)N2C[C@H](C)CC[C@H]2c2ccc(-c3nccs3)cc2)cnc1N (single isomer, unassigned) [Compound 816] | > 500 | > 500 | > 500 | > 1000 | > 1000 | > 10000 | C (an IC50 ratio of less than 3 fold) |
| C[C@@H]1CC[C@@H](c2ccc(-c3cncs3)cc2)N(C(=O)C(=O)Nc2cncc(C(N)=O)c2)C1 (single isomer, unassigned) [Compound 817, 5-(2-(5-methyl-2-(4-(thiazol-5-yl)phenyl)piperidin-1-yl)-2-oxoacetamido)nicotinamide] | > 500 | > 500 | > 500 | > 1000 | > 1000 | > 10000 | C (an IC50 ratio of less than 3 fold) |
| CCc1cc(NC(=O)C(=O)N2C[C@H](C)CC[C@H]2c2ccc3[nH]c(=O)ccc3c2)cnc1N (single isomer, unassigned) [Compound 819] | > 500 | > 500 | > 500 | > 1000 | 100 to 1000 | 1000 to 10000 | A (an IC50 ratio greater than or equal to 10 fold) |
| Cc1cc(NC(=O)C(=O)N2C[C@@H](C)CC[C@@H]2c2ccc(-c3nccs3)cc2)cnc1N (single isomer, unassigned) [Compound 820] | 50 to 500 | < 50 | 50 to 500 | 100 to 1000 | < 100 | < 1000 | B (an IC50 ratio greater than or equal to 3 fold but lower than 10 fold) |
| C[C@H]1CC[C@H](c2ccc(-c3cncs3)cc2)N(C(=O)C(=O)Nc2cncc(C(N)=O)c2)C1 (single isomer, unassigned) [Compound 821, 5-(2-(5-methyl-2-(4-(thiazol-5-yl)phenyl)piperidin-1-yl)-2-oxoacetamido)nicotinamide] | 50 to 500 | < 50 | 50 to 500 | > 1000 | < 100 | 1000 to 10000 | A (an IC50 ratio greater than or equal to 10 fold) |
| CCc1cc(NC(=O)C(=O)N2C[C@@H](C)CC[C@@H]2c2ccc(-c3nccs3)cc2)cnc1N (single isomer, unassigned) [Compound 822] | > 500 | > 500 | > 500 | > 1000 | > 1000 | > 10000 | C (an IC50 ratio of less than 3 fold) |
| CCc1cc(NC(=O)C(=O)N2C[C@@H](C)CC[C@@H]2c2ccc3[nH]c(=O)ccc3c2)cnc1N (single isomer, unassigned) [Compound 825] | 50 to 500 | < 50 | < 50 | 100 to 1000 | < 100 | < 1000 | A (an IC50 ratio greater than or equal to 10 fold) |
| Cc1cc(NC(=O)C(=O)N2C[C@H](C)CC[C@H]2c2cc3[nH]ncc3s2)cnc1N (single isomer, unassigned) [Compound 826] | > 500 | 50 to 500 | > 500 | > 1000 | > 1000 | > 10000 | B (an IC50 ratio greater than or equal to 3 fold but lower than 10 fold) |
| CCc1cc(NC(=O)C(=O)N2C[C@@H](C)CC[C@@H]2c2ccc(-c3cncs3)cc2)cnc1N (single isomer, unassigned) [Compound 827, N-(6-amino-5-ethylpyridin-3-yl)-2-(5-methyl-2-(4-(thiazol-5-yl)phenyl)piperidin-1-yl)-2-oxoacetamide] | > 500 | 50 to 500 | > 500 | > 1000 | 100 to 1000 | > 10000 | A (an IC50 ratio greater than or equal to 10 fold) |
| CCc1cc(NC(=O)C(=O)N2C[C@H](C)CC[C@H]2c2ccc(C(=O)NC)s2)cnc1N (single isomer, unassigned) [Compound 835] | > 500 | > 500 | > 500 | > 1000 | > 1000 | > 10000 | C (an IC50 ratio of less than 3 fold) |
| COc1ncc(NC(=O)C(=O)N2C[C@@H](C)CC[C@@H]2c2ccc(C(N)=O)s2)cc1C(N)=O (single isomer, unassigned) [Compound 837] | 50 to 500 | < 50 | < 50 | > 1000 | < 100 | < 1000 | A (an IC50 ratio greater than or equal to 10 fold) |
| CCc1cc(NC(=O)C(=O)N2C[C@H](C)CC[C@H]2c2ccc(C(N)=O)s2)cnc1N (single isomer, unassigned) [Compound 838] | 50 to 500 | < 50 | < 50 | 100 to 1000 | < 100 | < 1000 | A (an IC50 ratio greater than or equal to 10 fold) |
| CNC(=O)c1ccc([C@H]2CC[C@H](C)CN2C(=O)C(=O)Nc2cncc(C(N)=O)c2)s1 (single isomer, unassigned) [Compound 839] | > 500 | > 500 | > 500 | > 1000 | > 1000 | > 10000 | B (an IC50 ratio greater than or equal to 3 fold but lower than 10 fold) |
| CCc1cc(NC(=O)C(=O)N2C[C@H](C)CC[C@H]2c2ccc(-c3cncs3)cc2)cnc1N (single isomer, unassigned) [Compound 841, N-(6-amino-5-ethylpyridin-3-yl)-2-(5-methyl-2-(4-(thiazol-5-yl)phenyl)piperidin-1-yl)-2-oxoacetamide] | 50 to 500 | < 50 | < 50 | 100 to 1000 | < 100 | < 1000 | A (an IC50 ratio greater than or equal to 10 fold) |

The next lines start with results.

| IC50 (PRMT5 [1]) [nM] | IC50 (PRMT5 [2]) [nM] | IC50 (PRMT5 [4]) [nM] | IC50 [5] [nM] | IC50 [6] [nM] | Compound | IC50 [3] [nM] | MTAP intact/deleted ratio [6] |
| --- | --- | --- | --- | --- | --- | --- | --- |
| > 500 | > 500 | > 500 | > 1000 | > 1000 | Cc1cc(NC(=O)C(=O)N2C[C@H](C)CC[C@H]2c2ccc(C(N)=O)s2)cnc1N (single isomer, unassigned) [Compound 823] | > 10000 | C (an IC50 ratio of less than 3 fold) |
| 50 to 500 | < 50 | < 50 | 100 to 1000 | < 100 | Cc1cc(NC(=O)C(=O)N2C[C@@H](C)CC[C@@H]2c2cc3[nH]ncc3s2)cnc1N (single isomer, unassigned) [Compound 824] | < 1000 | A (an IC50 ratio greater than or equal to 10 fold) |
| 50 to 500 | < 50 | < 50 | > 1000 | < 100 | CNC(=O)c1ccc([C@@H]2CC[C@@H](C)CN2C(=O)C(=O)Nc2cncc(C(N)=O)c2)s1 (single isomer, unassigned) [Compound 829] | 1000 to 10000 | A (an IC50 ratio greater than or equal to 10 fold) |
| 50 to 500 | < 50 | 50 to 500 | > 1000 | < 100 | COc1ncc(NC(=O)C(=O)N2C[C@H](C)CC[C@H]2c2ccc(-c3cncs3)cc2)cc1C(N)=O (single isomer, unassigned) [Compound 830, 2-methoxy-5-(2-(5-methyl-2-(4-(thiazol-5-yl)phenyl)piperidin-1-yl)-2-oxoacetamido)nicotinamide] | < 1000 | A (an IC50 ratio greater than or equal to 10 fold) |
| 50 to 500 | < 50 | 50 to 500 | 100 to 1000 | < 100 | CNC(=O)c1ccc([C@H]2CC[C@H](C)CN2C(=O)C(=O)Nc2cnc(OC)c(C(N)=O)c2)s1 (single isomer, unassigned) [Compound 833] | < 1000 | A (an IC50 ratio greater than or equal to 10 fold) |
| 50 to 500 | < 50 | 50 to 500 | > 1000 | 100 to 1000 | C[C@@H]1CC[C@@H](c2cc(F)c(F)c(Cl)c2)N(C(=O)C(=O)Nc2cncc(C(N)=O)c2)C1 (single isomer, unassigned) [Compound 834] | 1000 to 10000 | A (an IC50 ratio greater than or equal to 10 fold) |
| 50 to 500 | < 50 | < 50 | 100 to 1000 | < 100 | CCc1cc(NC(=O)C(=O)N2C[C@@H](C)CC[C@@H]2c2ccc(C(=O)NC)s2)cnc1N (single isomer, unassigned) [Compound 840] | < 1000 | A (an IC50 ratio greater than or equal to 10 fold) |
